In US8293979B2, “Weed controller metabolism proteins, genes, thereof and use of the same” (Sumitomo Chemical Company, Limited, priority 2001, dated 2012):

What was measured:
[1] = tested on: present invention protein (A11); assay: Metabolism of compounds by the present invention protein (A11), reaction solution, HPLC; type: in vitro ADME, Streptomyces nogalator IFO13445; conditions: 12.5 ppm of compound, components A, B, C, 20 μl supernatant fraction of Example 32(2), 30° C. for 10 minutes
Method: There was prepared 100 μl of a reaction solution of 50 mM potassium phosphate buffer (pH7.0) containing 5 ppm of compound (XII), 3 mM of […] (hereinafter, referred to as “component A”) (Oriental Yeast Company), 1 mg/ml of a ferredoxin derived from spinach (hereinafter referred to as “component B”) (Sigma Company), 0.15 U/ml of ferredoxin reductase (hereinafter, referred to as “component C”) (Sigma Company) and 20 μl of the supernatant fraction recovered in Example 4(2). The reaction solution was maintained at 30° C. for 10 minutes. Further, there was prepared and maintained similarly 100 μl of a reaction solution of a 50 mM potassium phosphate buffer (pH 7.0) having no addition of at least one component utilized in the composition of the above reaction solution, selected from component A, component B, component C and the supernatant fraction prepared in Example 4(2). Ten microliters (10 μl) of 2N HCl and 500 μl of ethyl acetate were added and mixed into each of the reaction solutions after the maintenance. The resulting reaction solutions were centrifuged at 8,000×g to recover 490 μl of the ethyl acetate layer. After drying the ethyl acetate layers under reduced pressure, the residue was dissolved in 100 μl of 50 mM of potassium phosphate buffer (pH7.0). Forty microliters (40 μl) of the fraction solutions (hereinafter, the fraction solution derived from the reaction solution containing component A, component B, component C and 20 μl of supernatant fraction recovered in Example 4(2) is referred to as “(XII) metabolism solution (A1);” further, the fraction solution derived from the reaction solution containing no component A, no component B, no component C and no supernatant fraction recovered in Example 4(2) is referred to as “(XII) control solution (A1)”) were analyzed on a HPLC. Compared to the concentration of compound (XII) detected from (XII) control solution (A1), the concentration of compound (XII) detected from (XII) metabolism solution (A1) was lower. Further a peak, which was not detected from the (XII) control solution (A1), was detected from the (XII) metabolism solution (A1). Mass spectrometry was conducted for the compound contained in such a peak. […]
Other than utilizing 20 μl of the supernatant fraction recovered in Example 32(2) instead of 20 μl of the supernatant fraction recovered in Example 4(2), the reaction solutions were prepared and maintained in accordance with the method described in Example 41(2). […] Compared to the concentration of compound (XII) detected from (XII) control solution (A11), the concentration of compound (XII) detected from (XII) metabolism solution (A11) was lower. Further a peak, which was not detected from the (XII) control solution (A11), was detected from the (XII) metabolism solution (A11). […]

[2] = tested on: present invention protein (A1); assay: Metabolism of compounds by the present invention protein (A1), reaction solution, HPLC; type: in vitro ADME, Streptomyces phaeochromogenes IFO12898; conditions: 12.5 ppm of compound, components A, B, C, 20 μl supernatant fraction of Example 4(2), 30° C. for 10 minutes
Method: There was prepared 100 μl of a reaction solution of 50 mM potassium phosphate buffer (pH7.0) containing 5 ppm of compound (XII), 3 mM of […] (hereinafter, referred to as “component A”) (Oriental Yeast Company), 1 mg/ml of a ferredoxin derived from spinach (hereinafter referred to as “component B”) (Sigma Company), 0.15 U/ml of ferredoxin reductase (hereinafter, referred to as “component C”) (Sigma Company) and 20 μl of the supernatant fraction recovered in Example 4(2). The reaction solution was maintained at 30° C. for 10 minutes. Further, there was prepared and maintained similarly 100 μl of a reaction solution of a 50 mM potassium phosphate buffer (pH 7.0) having no addition of at least one component utilized in the composition of the above reaction solution, selected from component A, component B, component C and the supernatant fraction prepared in Example 4(2). Ten microliters (10 μl) of 2N HCl and 500 μl of ethyl acetate were added and mixed into each of the reaction solutions after the maintenance. The resulting reaction solutions were centrifuged at 8,000×g to recover 490 μl of the ethyl acetate layer. After drying the ethyl acetate layers under reduced pressure, the residue was dissolved in 100 μl of 50 mM of potassium phosphate buffer (pH7.0). Forty microliters (40 μl) of the fraction solutions (hereinafter, the fraction solution derived from the reaction solution containing component A, component B, component C and 20 μl of supernatant fraction recovered in Example 4(2) is referred to as “(XII) metabolism solution (A1);” further, the fraction solution derived from the reaction solution containing no component A, no component B, no component C and no supernatant fraction recovered in Example 4(2) is referred to as “(XII) control solution (A1)”) were analyzed on a HPLC. Compared to the concentration of compound (XII) detected from (XII) control solution (A1), the concentration of compound (XII) detected from (XII) metabolism solution (A1) was lower. Further a peak, which was not detected from the (XII) control solution (A1), was detected from the (XII) metabolism solution (A1). Mass spectrometry was conducted for the compound contained in such a peak. The mass of the compound contained in such a peak was 14 smaller than the mass of compound (XII).
Other than utilizing 5 ppm of compound (XIII) instead of 5 ppm of compound (XII), reaction solutions were prepared and maintained similarly to the method described in Example 41(2). […] Compared to the concentration of compound (XIII) detected from (XIII) control solution (A1), the concentration of compound (XIII) detected from (XIII) metabolism solution (A1) was lower. Further a peak, which was not detected from the (XIII) control solution (A1), was detected from the (XIII) metabolism solution (A1). […]

[3] = tested on: present invention protein (A1); type: in vitro ADME, Streptomyces phaeochromogenes IFO12898; conditions: E. coli JM109/pKSN657F cell suspension, compound at 100 ppm, shaking at 30° C., ethyl acetate layer, HPLC
Method: E. coli JM109/pKSN657F was cultured overnight at 37° C. in 3 ml of TB medium containing 50 μg/ml of ampicillin. A milliliter (1 ml) of the obtained culture medium was transferred to 100 ml of TB medium containing 50 μg/ml of ampicillin and cultured at 26° C. When OD660 reached about 0.5, 5-aminolevulinic acid was added to the final concentration of 500 μM, and the culturing was continued. Thirty (30) minutes thereafter, IPTG was added to a final concentration of 1 mM, and there was further culturing for 20 hours.
The cells were recovered from the culture medium, washed with 0.1M tris-HCl buffer (pH7.5) and suspended in 10 ml of 0.1M Tris-HCl buffer containing 1% glucose. Compound (VI) was added to the obtained cell suspension to a final concentration of 100 ppm and that was incubated with shaking at 30° C. At each of 0 hours after and 1 day after the start of shaking, 2 ml of the cell suspension were fractioned. Fifty microliters (50 μl) of 2N HCl were added to each and those were extracted with 2 ml of ethyl acetate. The obtained ethyl acetate layers were analyzed on a HPLC under reaction condition 1. Compared to the concentration of compound (VI) detected from the ethyl acetate layer prepared from the cell suspension at 0 hours after the start of shaking, the concentration of compound (VI) detected from the ethyl acetate later prepared from the cell suspension at 1 day after the start of shaking was lower. Further a peak, which was not detected from the ethyl acetate layer prepared from the cell suspension at 0 hours after the start of shaking, was detected from the ethyl acetate layer prepared from the cell suspension at 1 day after the start of shaking Mass spectrometry of the compound contained in said peak was conducted. […]
Other than utilizing compound (VIII) instead of compound (VI), there was conducted in accordance with the method described in Example 41(6), a culturing of E. coli JM109/pKSN657F, preparation of the cell suspension solution, incubation with shaking of the cell suspension solution to which compound (VIII) was added, reagent preparation from the cell suspension solution and HPLC analysis of the reagents. Compared to the concentration of compound (VIII) detected from the ethyl acetate layer prepared from the cell suspension at 0 hours after the start of shaking, the concentration of compound (VIII) detected from the ethyl acetate layer prepared from the cell suspension at 1 day after the start of shaking was lower. Further two peaks, which were not detected from the ethyl acetate layer prepared from the cell suspension at 0 hours after the start of shaking, were detected from the ethyl acetate layer prepared from the cell suspension at 1 day after the start of shaking Mass spectrometry of the compounds contained in said peaks were conducted. […]

Blackgrass [4] = assay: Herbicidal activity test, foliage treatment; type: in vivo, Alopercurus myosuroides; parameters: key: 0: situations in which the condition of sprouting or vegetation at the time of examination of the plant utilized for the test was compared with and showed totally or substantially no difference with that of the untreated application; 10: situations in which the plant completely withered or the sprouting or vegetation was completely suppressed; conditions: sprayed onto the foliage of plants cultivated 10 days, investigated after 16 days in a greenhouse
Method: (§1) Soil was packed into a round plastic pot having a diameter of 10 cm and depth of 10 cm. Barnyardgrass, Blackgrass, Ivyleaf morningglory were seeded and cultivated in a greenhouse for 10 days. Five (5) parts of the test compound, 6 parts of sorpol3005X (Toho Chemical Company) and 89 parts of xylene were well mixed to produce an emulsion. A certain amount thereof was diluted with water containing 0.1% (v/v) of a sticking agent at a proportion of 1000 L for 1 hectare and was spread uniformly with a spray-gun onto the all sides of the foliage from above the plant cultivated in the above pot. After cultivating the plants for 16 days in a greenhouse, the herbicidal activity of the test compound was investigated.
(§2) In the above Tables 3 and 4, the strength of the herbicidal activity is shown stepwise as 0, 1, 2, 3, 4, 5, 6, 7, 8, 9, and 10.

Blackgrass [5] = assay: Herbicidal activity test, soil surface treatment; type: in vivo, Alopercurus myosuroides; parameters: key: 0: situations in which the condition of sprouting or vegetation at the time of examination of the plant utilized for the test was compared with and showed totally or substantially no difference with that of the untreated application; 10: situations in which the plant completely withered or the sprouting or vegetation was completely suppressed; conditions: 500 g/ha, sprayed onto the surface of the soil after seeding, investigated after 19 days in a greenhouse
Method: as §1, with “seeded.” for “seeded and cultivated in a greenhouse for 10 days.”, “surface” for “all sides”, “soil.” for “foliage from above the plant cultivated in the above pot.”, “19” for “16”, “activity” for “activity of the test compound”
as §2

Barnyardgrass [6] = assay: Herbicidal activity test, soil surface treatment; type: in vivo, Echinochloa crus-galli; parameters: key: 0: situations in which the condition of sprouting or vegetation at the time of examination of the plant utilized for the test was compared with and showed totally or substantially no difference with that of the untreated application; 10: situations in which the plant completely withered or the sprouting or vegetation was completely suppressed; conditions: 500 g/ha, sprayed onto the surface of the soil after seeding, investigated after 19 days in a greenhouse
Method: as §1, with “seeded.” for “seeded and cultivated in a greenhouse for 10 days.”, “surface” for “all sides”, “soil.” for “foliage from above the plant cultivated in the above pot.”, “19” for “16”, “activity” for “activity of the test compound”
as §2

Ivyleaf morningglory [7] = assay: Herbicidal activity test, soil surface treatment; type: in vivo, Ipomoea hederacea; parameters: key: 0: situations in which the condition of sprouting or vegetation at the time of examination of the plant utilized for the test was compared with and showed totally or substantially no difference with that of the untreated application; 10: situations in which the plant completely withered or the sprouting or vegetation was completely suppressed; conditions: 500 g/ha, sprayed onto the surface of the soil after seeding, investigated after 19 days in a greenhouse
Method: as §1, with “seeded.” for “seeded and cultivated in a greenhouse for 10 days.”, “surface” for “all sides”, “soil.” for “foliage from above the plant cultivated in the above pot.”, “19” for “16”, “activity” for “activity of the test compound”
as §2

Ivyleaf morningglory [8] = assay: Herbicidal activity test, foliage treatment; type: in vivo, Ipomoea hederacea; parameters: key: 0: situations in which the condition of sprouting or vegetation at the time of examination of the plant utilized for the test was compared with and showed totally or substantially no difference with that of the untreated application; 10: situations in which the plant completely withered or the sprouting or vegetation was completely suppressed; conditions: sprayed onto the foliage of plants cultivated 10 days, investigated after 16 days in a greenhouse
Method: as §1, §2

Barnyardgrass [9] = assay: Herbicidal activity test, foliage treatment; type: in vivo, Echinochloa crus-galli; parameters: key: 0: situations in which the condition of sprouting or vegetation at the time of examination of the plant utilized for the test was compared with and showed totally or substantially no difference with that of the untreated application; 10: situations in which the plant completely withered or the sprouting or vegetation was completely suppressed; conditions: sprayed onto the foliage of plants cultivated 10 days, investigated after 16 days in a greenhouse
Method: as §1, §2

In the case of `COC(=O)CO/C(C)=C(/Oc1cc(-n2c(=O)cc(C(F)(F)F)n(C)c2=O)c(F)cc1Cl)C(=O)O` [compound (XVI)], the “concentration of the compound detected from metabolism solution (A11) compared to control solution (A11)” value [1] is reported as “lower” and the “concentration of the compound detected from metabolism solution (A1) compared to control solution (A1)” value [2] is reported as “lower”.
For `CCc1ccc(COc2ccc(-n3c(=O)cc(C(F)(F)F)n(C)c3=O)cc2)c(OC(C)C(=O)OC)c1` (stereo not shown) [compound (VI)], the “concentration of the compound detected from the cell suspension at 1 day compared to 0 hours after the start of shaking” value [3] was “lower”.
With `COC(=O)C1(C)Cc2c(c(Cl)cc(F)c2-n2c(=O)cc(C(F)(F)F)n(C)c2=O)O1` (stereo not shown) [compound (VIII)] the “concentration of the compound detected from the cell suspension at 1 day compared to 0 hours after the start of shaking” value [3] was “lower”.
In the case of `Cn1c(C(F)(F)F)cc(=O)n(-c2c(F)cc(Cl)c3oc(C(=O)O)cc23)c1=O` [compound (XVII)], the “concentration of the compound detected from metabolism solution (A11) compared to control solution (A11)” value [1] is reported as “lower” and the “concentration of the compound detected from metabolism solution (A1) compared to control solution (A1)” value [2] is reported as “lower”.
For `C#CCN1C(=O)COc2ccc(-n3c(=O)cc(C(F)(F)F)n(C)c3=O)cc21` [compound (XI)], the “concentration of the compound detected from the cell suspension at 1 day compared to 0 hours after the start of shaking” value [3] was “lower”.
`C[C@@H](Oc1cc(-n2c(=O)cc(C(F)(F)F)[nH]c2=O)c(F)cc1Cl)C(=O)O` [compound (III)] was tested, and the “Herbicidal Activity Blackgrass” value (Blackgrass [4]; 125 g/ha) was 0, the “Herbicidal Activity Blackgrass” value (Blackgrass [4]; 500 g/ha) was 0 and the “Herbicidal Activity Blackgrass” value (Blackgrass [5]) was 0. For the same compound, the “Herbicidal Activity Barnyardgrass” value (Barnyardgrass [6]) was 0, the “Herbicidal Activity Ivyleaf Morningglory” value (Ivyleaf morningglory [7]) was 0 and the “Herbicidal Activity Ivyleaf Morningglory” value (Ivyleaf morningglory [8]; 125 g/ha) was 0. The “Herbicidal Activity Ivyleaf Morningglory” value (Ivyleaf morningglory [8]; 500 g/ha) was 0, the “Herbicidal Activity Barnyardgrass” value (Barnyardgrass [9]; 125 g/ha) was 0 and the “Herbicidal Activity Barnyardgrass” value (Barnyardgrass [9]; 500 g/ha) was 0.
